Data on 9 compounds can be found in PubChem BioAssay (NCI).

What all share (test): DTP human tumour cell line panel, 48 h
Experiment [1] deals with HCT-15 colon.
Experiment [2] deals with LOX IMVI melanoma.
In experiment [3] the test system is RXF 393 renal.
Experiment [4] relates to SK-OV-3 ovarian.
The test system of experiment [5] is T-47D breast.
For experiment [6], the system named is TK-10 renal.
The test system of experiment [7] is UACC-257 melanoma.
Experiment [8] deals with UO-31 renal.

By GI50 is commonly meant the concentration at which growth is held to half of that of the control. A word on the TGI: it is the concentration giving total growth inhibition. Read a high TGI as less potent growth arrest.

The structures appear in SMILES notation.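 Step 1: Grow cells in 96-well plates. Step 2: Expose to compound for 48 hours at 5 concentrations. Step 3: Interpolate endpoints linearly; if unreached, use highest concentration. Here, GI50 denotes the concentration required for 50% inhibition of growth. The concentration for full growth arrest is given as TGI.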

With `O=C(Nc1cccc(-n2cc(-c3ccncc3)c(-c3ccc(Cl)c(O)c3)n2)c1)c1ccc(N2CCOCC2)c(C(F)(F)F)c1`, the GI50 in experiment [1] was 1.81 µM; in experiment [2] it was 1.64 µM; in experiment [3] it was 0.626 µM; in experiment [4] it was 20 µM; in experiment [5], 35.9 µM; in experiment [6], 21.3 µM. Besides, the values for the GI50 in experiment [7] and in experiment [8] were 6.3 µM and 2.6 µM, respectively. For the same compound, the concentration for total growth inhibition (TGI) was 25.3 µM in experiment [1]; 7.29 µM in experiment [2]; 2.9 µM in experiment [3]; greater than 50 µM in experiment [4]; greater than 50 µM in experiment [5]; greater than 50 µM in experiment [6]. Further, the TGI in experiment [7] stood at 36.8 µM; in experiment [8] it was 34.3 µM.
`COc1cccc(-n2nc(C)c3c(N/N=C(\C)c4ccncc4)ncnc32)c1`: the GI50 was greater than 25 µM in experiment [1]; greater than 25 µM in experiment [2]; 8.15 µM in experiment [3]; 13.4 µM in experiment [4]; 6.6 µM in experiment [5]; 10.2 µM in experiment [6]. The figures for the GI50 in experiment [7] and in experiment [8] were greater than 25 µM and 13.8 µM, respectively. The TGI in experiment [1], in experiment [2], in experiment [3], in experiment [4], in experiment [5] and in experiment [6] was greater than 25 µM each time. For the same compound, the TGI in experiment [7] and in experiment [8] was greater than 25 µM each time.
Regarding `CN[C@H](C#Cc1c(F)ccc2c1/C(=C/c1[nH]ccc1OC)C(=O)N2)CO`, the GI50 in experiment [1] is 0.117 µM; in experiment [2] it was 0.344 µM; in experiment [3], 0.0855 µM; in experiment [4], 0.117 µM; in experiment [5], 2.27 µM; in experiment [6], 0.247 µM. Moreover, the GI50 in experiment [7] is 1.52 µM; in experiment [8] it was 0.335 µM. In addition, the TGI in experiment [1] is 3.02 µM; in experiment [2], 2.54 µM; in experiment [3], 0.704 µM; in experiment [4] it was 8.12 µM; in experiment [5] it was 13.6 µM; in experiment [6] it was 2.25 µM. Moreover, the results for the TGI in experiment [7] and in experiment [8] were 4.93 µM and 2.54 µM, respectively.
Consider `COc1cccc(-c2nn(-c3ccccc3)cc2-c2ccnc(NCCCNC(=O)Nc3ccc(Cl)c(Cl)c3)c2)c1`, for which the GI50 was 2.4 µM in experiment [1]; 1.64 µM in experiment [2]; 1.81 µM in experiment [3]; 4.92 µM in experiment [4]; 2.41 µM in experiment [5]; 4.51 µM in experiment [6]. Further, the GI50 is 2.05 µM in experiment [7] and 1.78 µM in experiment [8]. The TGI in experiment [1] is 6.66 µM; in experiment [2], 3.03 µM; in experiment [3], 4.87 µM; in experiment [4] it was 18.6 µM; in experiment [5], 11.4 µM; in experiment [6], 17.1 µM. In addition, the TGI in experiment [7] was determined as 5.38 µM; in experiment [8], 5.65 µM.
Consider `O=c1ccn(C2CC(O)C(CO)O2)c(=O)[nH]1` (centres undefined), for which the GI50 in experiment [1], in experiment [2], in experiment [3], in experiment [4], in experiment [5] and in experiment [6] was greater than 5000 µM throughout. For the same compound, the GI50 in experiment [7] and in experiment [8] was greater than 5000 µM each time. Moreover, the TGI in experiment [1], in experiment [2], in experiment [3], in experiment [4], in experiment [5] and in experiment [6] was greater than 5000 µM throughout. Besides, the TGI in experiment [7] and in experiment [8] was greater than 5000 µM throughout.
Turning to `O=C1C(N2CC2)=C(N2CC2)C(=O)C(N2CC2)=C1N1CC1`, the GI50 in experiment [1] was 0.15 µM; in experiment [2], less than 0.0209 µM; in experiment [3] it was 0.218 µM; in experiment [4] it was 0.123 µM; in experiment [5] it was 0.659 µM; in experiment [6] it was 2.59 µM. The values for the GI50 in experiment [7] and in experiment [8] were 0.109 µM and less than 0.0304 µM, respectively. For the same compound, the TGI was 0.901 µM in experiment [1]; 0.307 µM in experiment [2]; 1.01 µM in experiment [3]; 0.891 µM in experiment [4]; 23.8 µM in experiment [5]; greater than 100 µM in experiment [6]. Besides, the TGI stood at 0.749 µM in experiment [7] and 0.606 µM in experiment [8].
On to `C=C1/C(=C\C=C2/CCC[C@]3(C)[C@@H]([C@H](C)CCCC(C)(C)O)CC[C@@H]23)C[C@@H](OC(=O)CBr)C[C@@H]1O`, for which the GI50 in experiment [1] was 1.48 µM; in experiment [2], 0.147 µM; in experiment [3] it was 2.6 µM; in experiment [4] it was 14.9 µM; in experiment [5], 2.71 µM; in experiment [6] it was 6.88 µM. Also, the figures for the GI50 in experiment [7] and in experiment [8] were 9.84 µM and 0.155 µM, respectively. For the same compound, the TGI came to 3.31 µM in experiment [1]; 0.304 µM in experiment [2]; 7.41 µM in experiment [3]; 29.5 µM in experiment [4]; 19.3 µM in experiment [5]; 21.6 µM in experiment [6]. In addition, the total growth inhibition concentration (TGI) in experiment [7] is 26.8 µM; in experiment [8], 0.292 µM.
Take `C=CCC1(O)c2ccccc2C(=O)c2c(NCCN(CC(=O)OCC)CC(=O)OCC)cccc21` (centres undefined): the GI50 in experiment [1] is 69.5 µM; in experiment [2], greater than 100 µM; in experiment [3] it was greater than 100 µM; in experiment [4], greater than 100 µM; in experiment [5], 80.6 µM; in experiment [6] it was greater than 100 µM. Further, the GI50 in experiment [7] and in experiment [8] was greater than 100 µM each time. Moreover, the TGI in experiment [1], in experiment [2], in experiment [3], in experiment [4], in experiment [5] and in experiment [6] was greater than 100 µM in each case. Also, the TGI in experiment [7] and in experiment [8] was greater than 100 µM each time.
Take `O=S(=O)(Nc1ccc(Br)c(Cl)c1)c1ccc(-c2cnc(C3CC3)o2)cc1`: the GI50 in experiment [1] is 0.445 µM; in experiment [2] it was 0.565 µM; in experiment [3] it was 0.348 µM; in experiment [4], 1.49 µM; in experiment [5], 0.437 µM; in experiment [6], 2.89 µM. Further, the GI50 in experiment [7] is 2.08 µM; in experiment [8], 1.11 µM. The TGI in experiment [1] worked out at 13.7 µM; in experiment [2], 16.2 µM; in experiment [3], 3.48 µM; in experiment [4], 24.2 µM; in experiment [5], 21.1 µM; in experiment [6] it was 20.6 µM. In addition, the TGI in experiment [7] was found to be 25.9 µM; in experiment [8], 13.6 µM.
